Assay results: patent US10662189B2, “PDE4 inhibitor” (SHIJIAZHUANG SAGACITY NEW DRUG DEVELOPMENT CO., LTD., priority 2016, dated 2020)

Legend:
Recombinant human PDE4B = Recombinant human PDE4B (Homo sapiens (Human), UniProt Q07343); assay: Inhibitory activity against PDE 4B in vitro (fluorescence polarization, Transcreener AMP2/GMP2); assay type: biochemical; details: 1 μM cAMP
Protocol: Inhibitory activity of the compounds against PDE 4B
The enzyme activity was indicated by measuring the AMP/GMP expression and tracing AMP/GMP antibody binding based on fluorescence polarization in the biological assay.
10 mM Tris-HCl (pH 7.5), 5 mM MgCl2, 0.01% Brij 35, 1 mM DTT and 1% DMSO.
Recombinant human PDE4B (Gen accession number: NM_002600; amino acid 305 end) was expressed by baculovirus in Sf9 insect cells using an N-terminal GST tag. MW=78 kDa.
Transcreener® AMP2/GMP2 antibody and AMP2/GMP2 AlexaFluor633 tracer
i) Recombinant human PDE4B and the enzyme substrate (1 μM cAMP) were dissolved in the newly-prepared buffer solution, respectively.
ii) The PDE4B buffer solution defined as above was transferred into the reaction wells.
iii) The compound which was dissolved in 100% DMSO was added to the reaction wells of the PDE4B buffer solution by ultrasonic oscillator (echo 550; nanoliter range) and incubated at room temperature for 10 minutes.
iv) The enzymatic buffer solution was then added to the reaction wells defined as above to initiate the reaction.
v) The reaction was incubated at room temperature for 1 hour.
vi) The reaction was terminated by adding detecting mixture (Transcreener® AMP2/GMP2 antibody and AMP2/GMP2 AlexaFluor633 tracer) and incubated for 90 minutes with slowly mixing. The measurement range of fluorescence polarization is Ex/Em=620/688.
The fluorescence polarization signal was converted into nM according to the AMP/GMP standard curve and the percent enzyme activity relative to DMSO calculated by Excel. GraphPad Prism was used to plot the curves (Drawing Medicine Icon).

[1] = tested on: LPS-induced TNFα from the peripheral monocytes of human; assay: Inhibitory effect against LPS-induced TNFα in hPBMC in vitro (ELISA); assay type: cell-based; details: Monocyte, TNFα in supernatant, 24 hours
Protocol: Inhibitory activity of the compounds against the LPS-induced TNFα from the peripheral monocytes of human.
1. Whole blood in normal human was collected and EDTA-K2 was used as anticoagulant.
2. PBMC was isolated by Ficoll density gradient centrifugation. The concentration of the cells was adjusted to 2×10^6/mL.
3. 2×10^5 of cells were seed in per well of the 96-well U-bottom plate, followed by the addition of 200 μL/well of LPS with 1 ng/mL and 200 μL/per well of the compound with different concentration: […], 100 pM and 10 pM, with two duplicates of each concentration.
4. The reaction was incubated for 24 hours and the supernatant was collected.
5. ELISA was used to detect the level of TNFα in the supernatant and Graphpad Prism software was used to plot the inhibition curve and calculate the value of IC50.

[2] = tested on: collagen-induced arthritis in mice; assay: In vivo CIA model (collagen-induced mouse arthritis); set-up: species or system DBA/1 mice; details: for total pathological score (two hind limbs, HE staining): Mean±SEM
Description: The collagen-induced mouse arthritis model is an animal model for evaluating the therapeutic effect of drug treatment for psoriatic arthritis, of which pathogenesis and symptoms are obviously related to psoriatic arthritis. The model activated the reactivity of B cells and T cells to collagen by the injection of type II collagen. The activated B cells and T cells were attracted to the joints to cause the inflammation, thereby triggering a series of symptoms related to human psoriatic arthritis, such as redness and swelling of the joints, articular cartilage, joint capsule damage and other symptoms. Collagen-induced mouse arthritis is often used to evaluate the therapeutic effect during preclinical evaluation of candidate compounds for the medication for treating psoriatic arthritis.
The purpose of the experiment was to examine the therapeutic effect of the compound WX063 of embodiment 63 on collagen-induced arthritis in mice, thereby providing the preclinical pharmacodynamics information for subsequent clinical studies.
Mice were randomly divided into different treatment groups. The first immunization day is recorded as Day 0, and the following days were recorded in order.
After the DBA/1 mice were anesthetized with isoflurane, the prepared collagen emulsion was subcutaneously injected into the tail.
On Day 23, 100 μL of LPS solution was administered intraperitoneally.
On day 27, as the mean clinical score reached about 1 point, 60 mice with moderate disease were selected and re-randomized according to body weight and score, with 10 mice per group.
Dexamethasone as a positive control drug was administered at a dose of 0.3 mg/kg, which was common in the CIA model. […] It was administered once a day for a total of 11 days. The volume of the intragastric administration was 10 mL/kg.
Clinical observation: From Day 7 before immunization to Day 23 after immunization, the basic health status and the body weight changes of the DBA/1 mice were observed daily (recorded once a week). After Day 23, the health status, the arthritis incidence and the body weight changes of the mice were observed daily (recorded at least three times a week) until the end of the experiment.
Clinical score: After LPS injection, the arthritis incidence of mice was observed daily. As the clinical symptoms of arthritis occurred, the degree of disease was scored according to the standards of 0-4 (redness, joint deformation) at least three times a week, wherein the highest score for each limb was 4 points, and the highest score for each animal was 16 points. […].
Pathology: On day 38, the mice were euthanized. The hind limbs of the mice were taken, soaked in the 10% formalin solution, decalcified with formic acid solution, embedded in paraffin, sectioned, and stained with hematoxylin-eosin and photographed by microscopy. The degree of joint damage was evaluated from four aspects: inflammatory cell infiltration, formation of […], cartilage damage and bone resorption, and scored according to the standards of 0-4.
The experimental data were expressed as mean value±standard error of mean (Mean±SEM). The body weight and the clinical scores were analyzed by double factor variance (two-way ANOVA). Pathological scores and AUC were tested by T test. p<0.05 was considered as significant difference.

Chain of Recombinant human PDE4B (Q07343 305-736 limits assumed): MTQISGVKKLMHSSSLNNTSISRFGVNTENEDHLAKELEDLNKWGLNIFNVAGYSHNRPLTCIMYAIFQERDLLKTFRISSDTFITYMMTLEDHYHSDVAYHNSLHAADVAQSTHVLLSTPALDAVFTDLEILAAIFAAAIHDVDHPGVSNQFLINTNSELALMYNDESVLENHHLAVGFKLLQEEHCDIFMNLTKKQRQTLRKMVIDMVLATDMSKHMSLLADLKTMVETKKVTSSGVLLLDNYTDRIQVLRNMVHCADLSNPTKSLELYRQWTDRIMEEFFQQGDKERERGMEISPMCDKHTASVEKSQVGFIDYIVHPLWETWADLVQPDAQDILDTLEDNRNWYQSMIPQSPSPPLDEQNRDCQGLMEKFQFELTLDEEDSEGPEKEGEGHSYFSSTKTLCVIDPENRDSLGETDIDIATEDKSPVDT

| SMILES | IC50 (Recombinant human PDE4B) [nM] | IC50 [1] [nM] | further results |
| --- | --- | --- | --- |
| CCOc1cc([C@@H](CS(C)(=O)=O)n2c(=O)[nH]c3c(C)c(-c4ccccc4F)cnc32)ccc1OC [WX063] | 0.685 | 0.56 | percentage inhibition of clinical score AUC relative to the vehicle control group ([2]; 0.3 mg/kg): 43.9%; mean clinical score ([2]; 0.3 mg/kg intragastric once a day, Day 37): 3.6 points; percentage inhibition of clinical score AUC relative to the vehicle control group ([2]; 1 mg/kg): 39.4%; mean clinical score ([2]; 1 mg/kg intragastric once a day, Day 37): 4.3 points; total pathological score (two hind limbs, HE staining) ([2]; 1 mg/kg): 14.00±2.43; percentage inhibition of clinical score AUC relative to the vehicle control group ([2]; 3 mg/kg): 51.7%; therapeutic effect (clinical score and arthritis pathology score) versus Apremilast 5 mg/kg (in words) ([2]; 3 mg/kg): better than the one of Apremilast; mean clinical score ([2]; 3 mg/kg intragastric once a day, Day 37): 3.5 points; total pathological score (two hind limbs, HE staining) ([2]; 3 mg/kg): 9.20±1.83; treatment of collagen-induced arthritis and pathological changes of arthritis (in words) ([2]; doses of 0.3, 1 and 3 mg/kg): significant improvement |
| CCOc1cc([C@@H](CS(C)(=O)=O)N2C(=O)c3cccc(NC(C)=O)c3C2=O)ccc1OC [Apremilast, reference compound] | – | – | mean clinical score ([2]; 5 mg/kg intragastric once a day, Day 37): 4.2 points; mean clinical score lower compared with the vehicle control group ([2]; 5 mg/kg, Day 37): 3.7 points; total pathological score (two hind limbs, HE staining) ([2]; 5 mg/kg): 13.90±1.89 |
| CCOc1cc([C@@H](CS(C)(=O)=O)n2c(=O)n(C)c3cc(-c4ccccc4F)cnc32)ccc1OC [WX057] | 1.25 | 3.4 | – |
| C[C@@H]1C[C@H]2[C@@H]3CCC4=CC(=O)C=C[C@]4(C)[C@@]3(F)[C@@H](O)C[C@]2(C)[C@@]1(O)C(=O)CO [Dexamethasone, reference compound] | – | – | percentage inhibition of clinical score AUC relative to the vehicle control group ([2]; 0.3 mg/kg): 96.4%; clinical score ([2]; 0.3 mg/kg intragastric once a day, Day 30 and maintained to the end of the trial): 0 points |
| CCOc1cc([C@@H](CS(C)(=O)=O)n2c(=O)[nH]c3c(-c4ccccc4F)ccnc32)ccc1OC [WX065] | 1.87 | 8.8 | – |
| CCOc1cc([C@@H](CS(C)(=O)=O)n2c(=O)[nH]c3c(-c4cnn(C)c4)ccnc32)ccc1OC [WX067] | 18.5 | 6.4 | – |
| CCOc1cc([C@@H](CS(C)(=O)=O)n2c(=O)[nH]c3c(-c4ccccc4)ccnc32)ccc1OC [WX066] | 2.48 | 3.8 | – |
| CCOc1cc([C@@H](CS(C)(=O)=O)n2c(=O)[nH]c3c(C)c(-c4ccccc4)cnc32)ccc1OC [WX064] | 2.23 | – | – |
| CCOc1cc([C@@H](CS(C)(=O)=O)n2c(=O)[nH]c3cc(-n4ccccc4=O)cnc32)ccc1OC [WX021] | 26.1 | – | – |
| CCOc1cc(C(CS(C)(=O)=O)n2c(=O)[nH]c3cc(-c4ccccc4F)cnc32)ccc1OC(F)F (stereo not drawn) [WX073] | < 0.5 | – | – |
| CCOc1cc([C@@H](CS(C)(=O)=O)n2c(=O)[nH]c3cc(-c4ncccc4F)cnc32)ccc1OC [WX037] | 10.2 | – | – |
| CCOc1cc([C@@H](CS(C)(=O)=O)n2c(=O)[nH]c3cc(-c4nccc(C)n4)cnc32)ccc1OC [WX028] | 9.7 | – | – |
